This is an account of results in PMC11698746 (Scientific Reports, 2025).

What is called Papp is the rate of passage across a membrane or cell layer, normalised by area and donor concentration.

The structures appear in SMILES notation. Like-named read-outs stand apart in the source and are kept apart here.

A short description of series [1]: Transport of flavonoids in HLF across Caco-2 cell monolayer. Conditions: human, Caco-2, Papp, Caco-2, range over HLF 50, 100 and 200 µg·mL^−1. The series is classed as in vitro ADME. A general note: Caco-2 monolayers are a common model of the intestinal barrier.
Series [2] in a line: Pharmacokinetics of HLF via oral administration. Conditions: after intragastric administration of HLF. The class given is in vivo, rat.
The test system of a further series is rat intestine. The class given is in vivo. Conditions: for detection in the effluent fluid: rat single-pass intestinal perfusion after HLF via jugular vein.
Series [3] is described as follows: In situ recirculating intestinal perfusion. The class given is in vivo. Conditions: rat, other: in situ recirculating intestinal perfusion, absorption potential (Papp), rat small intestine, different concentrations of HLF.
The subject of the next series is intestinal microflora. The series is described as follows: Metabolism of HLF by intestinal microflora. The series is classed as in vitro ADME, rat. Conditions: anaerobic incubation 37 °C, up to 48 h.
For series [4] the following is noted: cited from earlier work.
The next series deals with rat small intestine. Description: In situ recirculating intestinal perfusion. Conditions: different concentrations of HLF. The series is classed as in vivo.

`O=c1cc(-c2ccc(O)cc2)oc2c([C@@H]3O[C@H](CO)[C@@H](O)[C@H](O)[C@H]3O)c(O)cc(O)c12` [VIT, vitexin] displayed a Papp in series [1] of 0.218 to 0.383 ×10⁻⁶ cm/s. For the same molecule, the “detection in the rat plasma and bile” value in series [2] was “cannot be detected”. Besides, the “reduction of cumulative efflux amount” value in the series on rat intestine (in the presence of VP vs absence) was 47.63%. For the same molecule, the “detection in the effluent fluid” value in the series on rat intestine is on record as “detected”. This molecule had a Papp at 3 h in series [3] of 0.031 to 0.141 ×10⁻⁶ cm/s.

For the molecule `O=c1c(O[C@@H]2O[C@H](CO)[C@H](O)[C@H](O)[C@H]2O)c(-c2ccc(O)c(O)c2)oc2cc(O)cc(O)c12` [HP, hyperoside], the “metabolism by the intestinal microflora” value in the series on intestinal microflora is given as “metabolized to QUE”. Moreover, the Papp in series [1] is 0.226 to 0.383 ×10⁻⁶ cm/s; in series [4] (previous study), 1.87 ± 1.11 ×10^−7 cm·sec^−1. Moreover, the “detection in the rat plasma and bile” value in series [2] is reported as “cannot be detected”. Moreover, the “detection in the effluent fluid” value with rat intestine was “hardly detected”. The Papp at 3 h in series [3] is 0.255 to 0.427 ×10⁻⁶ cm/s. Moreover, in the series with rat small intestine, the “absorption extent (A)” value came to 11.40 ± 0.98 %·h^−1. The “absorption potential (Papp)” value with rat small intestine is 4.27 ± 0.36 ×10^−7 cm·sec^−1.

Consider `C[C@@H]1O[C@@H](OC[C@H]2O[C@@H](Oc3c(-c4ccc(O)c(O)c4)oc4cc(O)cc(O)c4c3=O)[C@H](O)[C@@H](O)[C@@H]2O)[C@H](O)[C@H](O)[C@H]1O` [RUT, rutin], for which, in the series with intestinal microflora, the “metabolism by the intestinal microflora” value is on record as “metabolized to QUE”. Besides, the Papp in series [1] was 0.228 to 0.304 ×10⁻⁶ cm/s; in series [4] (other study), 1.03 ± 0.13 ×10^−5 cm·sec^−1. Besides, the “detection in the rat plasma and bile” value in series [2] was “cannot be detected”. In the series on rat intestine, the “detection in the effluent fluid” value is “hardly detected”. In series [3], this molecule registered a Papp at 3 h of 0.031 to 0.141 ×10⁻⁶ cm/s.
